The text below walks through data of PubChem BioAssay (NCI).

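A five-concentration, 48-hour dose response in 96-well plates underlies each endpoint, interpolated linearly between surrounding concentrations. At the TGI there is no net growth.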

Among the test systems are NCI/ADR-RES ovarian; 786-0 renal; MALME-3M melanoma; A549 NSCLC; CAKI-1 renal; A498 renal; RXF 393 renal; NCI-H226 lung; MDA-N; OVCAR-8 ovarian; BT-549 breast; MOLT-4 leukemia; UO-31 renal; RPMI-8226 leukemia; OVCAR-4 ovarian; SF-295 CNS; CCRF-CEM leukemia; HS 578T breast; K-562 leukemia.
Test in all cases: NCI-60 cell line screen, 48 h

Turning to `NC(CCC(=O)NC(CSCC1C(=O)Nc2ccccc21)C(=O)NCC(=O)O)C(=O)O` (stereo unspecified), the TGI was found to be 19.7 µM in the experiment with NCI/ADR-RES ovarian; 8.55 µM with 786-0 renal; 20 µM with MALME-3M melanoma; 19.7 µM with A549 NSCLC; 9.95 µM in the experiment on CAKI-1 renal; 33.1 µM in the experiment on A498 renal. Further, the TGI stood at 2.33 µM in the experiment on RXF 393 renal; 21.9 µM with NCI-H226 lung; 16.7 µM in the experiment on MDA-N; 13.4 µM with OVCAR-8 ovarian; 15.9 µM with BT-549 breast; 12.8 µM in the experiment on MOLT-4 leukemia. The TGI is 1.74 µM with UO-31 renal; 6.52 µM in the experiment with RPMI-8226 leukemia; > 22.2 µM in the experiment with OVCAR-4 ovarian; > 45.6 µM with SF-295 CNS; > 24.8 µM with CCRF-CEM leukemia; > 100 µM in the experiment with HS 578T breast.

Consider `O=[N+]([O-])/C(C(Cl)=C(Cl)Cl)=C(\N1CCCCC1)n1cncn1`, for which the TGI with NCI/ADR-RES ovarian was 56 µM; with 786-0 renal, 52.4 µM; in the experiment on MALME-3M melanoma it was 30.9 µM; in the experiment with A549 NSCLC, 39.8 µM; in the experiment with CAKI-1 renal, 25.2 µM; in the experiment on A498 renal it was 31.4 µM. In addition, the TGI in the experiment with RXF 393 renal was 24.2 µM; in the experiment with NCI-H226 lung it was 40.3 µM; in the experiment with MDA-N, 32.8 µM; in the experiment with OVCAR-8 ovarian, 40.8 µM; in the experiment on BT-549 breast, 31.6 µM; in the experiment on MOLT-4 leukemia, > 50.5 µM. Further, the TGI in the experiment with UO-31 renal is 30.8 µM; in the experiment with RPMI-8226 leukemia, 57.2 µM; with OVCAR-4 ovarian it was 36.7 µM; in the experiment with K-562 leukemia it was > 100 µM; in the experiment with SF-295 CNS, 35.8 µM; with CCRF-CEM leukemia, > 100 µM. In the experiment with HS 578T breast, this compound returned a TGI of 28.2 µM.

Consider `NNC(=O)CSc1nc2ccccc2c(=O)n1N`, for which the TGI with NCI/ADR-RES ovarian was > 100 µM; in the experiment on 786-0 renal it was 57.4 µM; in the experiment with MALME-3M melanoma it was > 100 µM; in the experiment on A549 NSCLC it was > 100 µM; in the experiment with CAKI-1 renal, > 100 µM; in the experiment on A498 renal, > 100 µM. Moreover, the TGI is 95.5 µM in the experiment with RXF 393 renal; > 100 µM in the experiment with NCI-H226 lung; > 100 µM with MDA-N; > 100 µM in the experiment with OVCAR-8 ovarian; > 100 µM with BT-549 breast; > 100 µM in the experiment with MOLT-4 leukemia. For the same compound, the TGI in the experiment on UO-31 renal, with RPMI-8226 leukemia, in the experiment on OVCAR-4 ovarian, in the experiment on K-562 leukemia, in the experiment with SF-295 CNS and in the experiment on CCRF-CEM leukemia was > 100 µM each time. The TGI with HS 578T breast was 98.8 µM.

As for `CC(=O)O[C@H]1CC[C@@]2(C)C(=CC[C@H]3[C@@H]4C[C@H](N5CCOCC5)[C@H](OC(C)=O)[C@@]4(C)CC[C@@H]32)C1`, the TGI in the experiment on NCI/ADR-RES ovarian, with 786-0 renal, with MALME-3M melanoma, with A549 NSCLC, in the experiment with CAKI-1 renal and with A498 renal was > 100 µM in each case. Besides, the TGI in the experiment with RXF 393 renal, in the experiment with NCI-H226 lung, with MDA-N, in the experiment on OVCAR-8 ovarian, with BT-549 breast and with MOLT-4 leukemia was > 100 µM each time. The TGI in the experiment with UO-31 renal, with RPMI-8226 leukemia, in the experiment with OVCAR-4 ovarian, with K-562 leukemia, in the experiment with SF-295 CNS and in the experiment with CCRF-CEM leukemia was > 100 µM in each case. Moreover, the TGI with HS 578T breast was > 100 µM.

Regarding `O=C1c2cccnc2-c2nccc3c2c1nc1cc(Br)ccc13`, the TGI in the experiment on NCI/ADR-RES ovarian was determined as 0.0711 µM; with 786-0 renal it was 0.188 µM; with MALME-3M melanoma, 0.374 µM; with A549 NSCLC, 0.309 µM; in the experiment with CAKI-1 renal, 0.591 µM; in the experiment on A498 renal it was 0.0659 µM. The TGI in the experiment with RXF 393 renal was 0.355 µM; with NCI-H226 lung, 0.855 µM; with MDA-N, 0.732 µM; in the experiment on OVCAR-8 ovarian it was 0.388 µM; in the experiment with BT-549 breast, 1.23 µM; in the experiment with MOLT-4 leukemia, 0.854 µM. In addition, the TGI in the experiment with UO-31 renal stood at 0.568 µM; in the experiment with RPMI-8226 leukemia it was 0.448 µM; in the experiment on OVCAR-4 ovarian it was 0.563 µM; in the experiment on SF-295 CNS, 0.72 µM; with CCRF-CEM leukemia it was 0.465 µM; in the experiment with HS 578T breast, 0.942 µM.

Turning to `On1c(-c2ccccc2)nc2ccccc2c1=S`, the TGI in the experiment on NCI/ADR-RES ovarian, with 786-0 renal, in the experiment with MALME-3M melanoma, in the experiment with A549 NSCLC, in the experiment with CAKI-1 renal and in the experiment on A498 renal was > 100 µM throughout. Also, the TGI was > 100 µM with RXF 393 renal; > 100 µM in the experiment with NCI-H226 lung; > 100 µM in the experiment on MDA-N; > 100 µM with OVCAR-8 ovarian; > 100 µM in the experiment on BT-549 breast; 11.2 µM with MOLT-4 leukemia. Moreover, the TGI with UO-31 renal, in the experiment with RPMI-8226 leukemia, in the experiment on OVCAR-4 ovarian, with K-562 leukemia, in the experiment on SF-295 CNS and in the experiment on CCRF-CEM leukemia was > 100 µM throughout. In addition, in the experiment on HS 578T breast, the TGI was > 100 µM.

As for `CCN1CCC(O)(/C=C/c2ccc(C)cc2C)C(C(=O)/C=C/c2ccc(C)cc2C)C1` (stereo unspecified), the TGI was found to be 7.31 µM in the experiment with NCI/ADR-RES ovarian; 3.32 µM in the experiment on 786-0 renal; 11.4 µM in the experiment on MALME-3M melanoma; 11.1 µM in the experiment with A549 NSCLC; 9.85 µM in the experiment on CAKI-1 renal; 22.7 µM in the experiment on A498 renal. Besides, the TGI stood at 14.3 µM with RXF 393 renal; 7.79 µM in the experiment on NCI-H226 lung; 6.26 µM with MDA-N; 5.08 µM in the experiment on OVCAR-8 ovarian; 8.52 µM with BT-549 breast; 5.08 µM in the experiment with MOLT-4 leukemia. For the same compound, the TGI with UO-31 renal is 6.66 µM; in the experiment with RPMI-8226 leukemia, > 21.2 µM; in the experiment with OVCAR-4 ovarian it was 7.99 µM; with K-562 leukemia, > 100 µM; in the experiment on SF-295 CNS, 4.94 µM; in the experiment on CCRF-CEM leukemia, 7.8 µM. The TGI in the experiment on HS 578T breast came out at 5.38 µM.
